In patent publication US20260183295A1, “METHODS AND COMPOSITIONS FOR TREATING CANCER” (Onconova Therapeutics, Inc., priority 2022, published 2026):

Tests used:
MDA-MB-231 cells [1] = experiment: Annexin V/PI staining followed by FACS, 24 hours; format: cell-based
Description: To determine the effect of the different treatment conditions on cell death, Annexin V/PI staining was performed.

Hs578t cells [2] = experiment: Cancer cell growth, 48 hours; format: cell-based; conditions: 5 μM or 10 μM, compared to Comparator 1 (FIG. 1)
Description: At the end of 48 hours, growth of cells was measured using standard techniques.

MDA-MB-231 cells [3] = experiment: Lysotracker Green staining, phase contrast microscopy; format: cell-based; conditions: 5 μM, 2 hours
Description: MDA-MB-231 cells were treated with Compound 1 (5 μM) for 2 hours and stained with Lysotracker Green and imaged using phase contrast microscopy to examine the effect of Compound 1 treatment on vacuolization.

PARP in HCC-1937 = experiment: PARP cleavage after 72 hours treatment; format: cell-based; conditions: HCC-1937 (TNBC)
Description: (§1) The effects on the different treatment conditions on BUB 1 levels and PARP cleavage were also assessed. For both MNA-MB-231 cells, Compound 1 alone or with HCQ or SBI decreased BUB1 levels and cleaved PARP with […] decreases in cell viability observed for all treatments except Compound 1+SBI in MMA-MB-231 cells. The effects of Compound 1 with or without autophagy inhibitors was less pronounced in HCC-1937 cells.

PARP in MDA-MB-468 = experiment: PARP cleavage after 72 hours treatment; format: cell-based; conditions: MDA-MB-468 (TNBC)
Description: as §1

PARP in MDA-MB-231 = experiment: PARP cleavage after 72 hours treatment; format: cell-based; conditions: MDA-MB-231 (TNBC)
Description: as §1

Caspase 3 = experiment: Western blot, MDA-MB-231 cells, 24 hours; format: cell-based; conditions: 2.5, 5, 10 μM, versus Comparator 1, 2 and 4
p21 = experiment: Western blot, MDA-MB-231 cells, 24 hours; format: cell-based; conditions: 2.5, 5, 10 μM, versus Comparator 1, 2 and 4
NUAK1 [4] = molecular target: T1, NUAK1 (Homo sapiens, UniProt O60285); experiment: NUAK1 NanoBret; format: cell-based
T1 sequence (O60285 1-661): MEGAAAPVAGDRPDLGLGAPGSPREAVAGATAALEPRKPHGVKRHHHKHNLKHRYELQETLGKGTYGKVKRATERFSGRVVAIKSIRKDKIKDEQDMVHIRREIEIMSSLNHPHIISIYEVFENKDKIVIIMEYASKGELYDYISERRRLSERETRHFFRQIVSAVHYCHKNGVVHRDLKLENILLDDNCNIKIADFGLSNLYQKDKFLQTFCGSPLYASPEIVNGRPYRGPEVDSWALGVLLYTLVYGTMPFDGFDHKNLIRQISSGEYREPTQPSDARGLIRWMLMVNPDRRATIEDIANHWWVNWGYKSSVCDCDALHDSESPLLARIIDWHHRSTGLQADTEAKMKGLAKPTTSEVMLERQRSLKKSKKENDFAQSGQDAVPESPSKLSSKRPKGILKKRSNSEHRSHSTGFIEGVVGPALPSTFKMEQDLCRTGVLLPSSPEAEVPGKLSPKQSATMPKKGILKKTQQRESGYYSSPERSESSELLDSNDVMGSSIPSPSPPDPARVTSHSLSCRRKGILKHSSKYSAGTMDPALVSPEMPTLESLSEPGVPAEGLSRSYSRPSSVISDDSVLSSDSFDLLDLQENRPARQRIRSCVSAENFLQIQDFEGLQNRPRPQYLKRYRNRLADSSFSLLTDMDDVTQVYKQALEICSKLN

NUAK1 [5] = molecular target: T1, NUAK1; experiment: NUAK1 In Vitro Kd, kinase binding assay (qPCR); conditions: second In Vitro column of Table 8
Description: Kinase-tagged T7 phage strains were prepared in an E. coli host derived from the BL21 strain. E. coli were grown to log-phase and infected with T7 phage and incubated with shaking at 32° C. until lysis. The lysates were spun by centrifuge and filtered to remove cell debris. The remaining kinases were produced in HEK-293 cells and subsequently tagged with DNA for qPCR detection. […] The liganded beads were blocked with excess biotin and washed with blocking buffer (SeaBlock (Pierce), 1% BSA, 0.05% Tween 20, 1 mM DTT) to remove unbound ligand and to reduce non-specific binding. […] Test compounds were prepared as 111× stocks in 100% DMSO. Kds were determined using an 11-point 3-fold compound dilution series with three DMSO control points.
The compounds were then diluted directly into the assays such that the final concentration of DMSO was 0.9%. All reactions performed in polypropylene 384-well plate. Each was a final volume of 0.02 ml. […] The kinase concentration in the eluates was measured by qPCR. Binding constants (Kds) were calculated with a standard dose-response curve using the Hill equation: Response=Background+Signal−Background 1+(KdHill Slope/DoseHill Slope) The Hill Slope was set to −1. Curves were fitted using a non-linear least square fit with the Levenberg-Marquardt algorithm.

[6] = test system: T-47D, HCC-1937, HS-578T, BT-474, MDA-MB-468, and MD-MB-453 cell lines; experiment: MTT cell viability of breast cancer cell line panel versus comparators, 48 hrs (FIG. 17); format: cell-based
Hs578t cells [7] = experiment: Wound healing assay (24 Hour Migration Assay); format: cell-based; conditions: 1.0 μM and 10.0 μM
Description: (§2) A cell-free area was created in a confluent monolayer by physical exclusion or by removing the cells from the area through mechanical, thermal or chemical damage. The exposure to the cell-free area induced the cells to migrate into the gap. The rate of gap closure was measured and plotted.

MDA-MB-231 cells [8] = experiment: Wound healing assay (24 Hour Migration Assay); format: cell-based; conditions: MDA-MB-231, 1.0 μM and 10.0 μM
Description: as §2

CCL5 = experiment: qPCR of T-cell recruiting chemokine mRNA, PyMT cells; format: cell-based, mouse

Compound: CN1CCN(c2ccc(Nc3ncc4cc(C#N)c(=O)n(C5CCCC5)c4n3)cc2)CC1 [Compound 1, 8-cyclopentyl-2-((4-(4-methylpiperazin-1-yl)phenyl)amino)-7-oxo-7,8-dihydropyrido[2,3-d]pyrimidine-6-carbonitrile]
- cell death (Annexin V/PI) (MDA-MB-231 cells [1]; Compound 1, Comparator 1, 2 5 μM, Comparator 4 10 μM): ~40%
- effect of zVAD-FMK on cell death, Annexin V/PI staining (MDA-MB-231 cells [1]; zVAD-FMK 20 μM (FIG. 24)): unaffected by zVAD-FMK treatment
- growth of cells (Hs578t cells [2]): significantly inhibited
- vacuolization, Lysotracker Green staining (MDA-MB-231 cells [3]): extensive cytoplasmic vacuolization that colocalized with Lysotracker green staining
- PARP Cleavage (PARP in HCC-1937): No
- PARP Cleavage (PARP in MDA-MB-468): Yes
- PARP Cleavage (PARP in MDA-MB-231): Yes
- Caspase 3 levels (Caspase 3): decreasing
- p21 levels (p21): decreasing
- IC50 (NUAK1 [4]): 42 nM
- Kd (NUAK1 [5]): 19 nM
- dose dependence of cell death (MTT) ([6]; 2.5, 5.0, 10 μM, HCC-1937, Hs-578T, BT-474, MDA-MB-468, MDA-MB-453): dose-dependent effect
- cell death (MTT), comparison of treatments ([6]; Comparator 4 10 μM, Comparator 1 and 2 5 μM, Compound 1 2.5, 5.0, 10 μM): greater potency in inducing cell death compared to both Comparator 1 and Comparator 2
- cell migration (rate of gap closure) (Hs578t cells [7]): inhibited cell migration significantly more than Comparator 1
- cell migration (rate of gap closure) (MDA-MB-231 cells [8]): inhibited cell migration significantly more than Comparator 1
- time of peak CCL5 mRNA levels (CCL5): ~48 h
- CCL5 mRNA levels (CCL5; 24, 48 and 72 hours): large increase
